The conditions of series [1]: cited from earlier work.
Series [2] is described as follows: In-vitro membrane permeation of NAG through shed snakeskin (Franz cell; enhancers, DMSO, ethanol/buffer). The format is in vitro ADME, snake. The text has this: Shed snakeskins were used as a model membrane for permeation studies using the NAG suspensions in known membrane permeation enhancers; ethanol, oleic acid, isopropyl myristate, and isopropyl palmitate; saturated solutions of NAG in water and in phosphate buffer; as well as in a saturated DMSO solution and phosphate buffer (pH 5.5) containing ethanol at 2%, 5%, 10%, 25%, and 50% solutions.
The skins were hydrated in 0.1% aqueous sodium azide solution at room temperature for 48 hrs. Franz-cell diffusions experiments were carried out. In general the receptor cell was filled with 7.4 pH 0.1 M phosphate buffer and the donor cell filled with a solution or suspension. For the phosphate buffer (pH 5.5) containing ethanol at 2%, 5%, 10%, 25%, and 50% solutions in the donor phase, the receptor phase consisted of phosphate buffer (pH 5.5, 0.1 M). The receptor solution was maintained at 37° C. and stirred with a magnetic stirrer.
The snake skins were mounted between the receptor and donor cells. The surface exposed to diffusion was 2.54 cm^2 (diameter 1.8 cm) and the receptor cell volume was 6 cm^3. The donor cell was covered with plastic film. The system was allowed to equilibrate at 37° C. for two hours before each experiment. To the donor cells, 5 ml of the NAG-enhancer suspension or solution was added. Samples were taken at intervals over a 24-hour period, 200-μl samples of receptor solutions were taken and replaced with fresh buffer; experiments were conducted in triplicate. The amounts of NAG that permeated through the snakeskin were determined by HPAE-PAD.
Steady state flux (Jss) for NAG (mg/cm^2/h) was calculated from its increasing amount in the receptor medium (Bach et al., Eur. J. Pharm. Biopharm, 46:1-13 (1998)). NAG's permeability coefficient (kp) in cm/h was calculated from known physiochemical parameters, (Hadgraft et al., “Feasibility Assessment in Topical and Transdermal Delivery: Mathematical Models and In Vitro Studies,” in Transdermal Drug Delivery. 2nd Ed. Marcel Dekker, Inc., pages 1-23 (2003)). Lag time (tlag) was determined graphically from the cumulative amount of drug released per unit area (mg/cm^2) versus time plots. A square root of time (t^1/2) versus cumulative amount of drug released per unit area (mg/cm^2) was obtained to monitor NAG in vitro release rate (mg/cm^2), (Guidance for Industry: SUPAC-SS Semisolid Dosage Forms. Scale-up and Postapproval Changes Chemistry, Manufacturing, and Control; In Vitro Release Testing and In Vivo Bioequivalence Documentation. US Department of Health and Human Services, Food and Drug Administration, Center for. Drug Evaluation and Research, May 1997).

Series [3] is classed as in vitro ADME, snake. As to the method: In vitro transport (diffusion) was evaluated by Franz cell diffusion experiments using shed snakeskin. Shed snakeskin is widely recognized as a sufficient model membrane to human skin for preliminary permeability studies due to the similarity in its composition to the human stratum corneum.
The shed snakeskin was hydrated in 0.1% aqueous sodium azide solution for 48 hours at room temperature. The skins were mounted to three Franz receptor cells filled with 0.1 M pH7 phosphate buffer. The receptor solution was maintained at 37° C. and stirred with a magnetic stirrer. The donor cells were clamped to each receptor cell, with the skin mounted between the receptor and donor cells, and the donor cells were filled with 100 milligrams (mg) each of glucosamine HCl (e.g., cell 1), N-acetyl glucosamine (e.g., cell 2), and glucosamine pentaacetyl (e.g., cell 3) in a 1 milliliter (ml) DMSO solution. The skin surface exposed to diffusion was 2.54 cm^2 (1.8 cm diameter) and the receptor cell volume was 6 cm^3. The system was allowed to equilibrate for two hours before samples were taken.
Twenty microliter (μl) samples of receptor solution were taken at 5, 10, 20, 40, 80, 160, and 240 minute intervals and replaced with fresh buffer. A ten μl aliquot of each sample was analyzed by high performance liquid chromatography with pulsed electrochemical detection.

Series [4] can be described thus: In-vitro membrane permeation of NAG from lecithin suspensions and pluronic organo-gel formulations across shed snakeskin. The format is in vitro ADME, snake. The method, then:
Twenty percent poloxamer 407 (PLURONIC F127; Polyethylene-Polypropylene Glycol) gels were made by standard methods e.g. dissolving the poloxamer into cold water under refrigeration for 24 hours to produce the pluronic gel phase. NAG was incorporated into the pluronic gel phase. The final formulations were prepared via the emulsification of the select organic phase with the pluronic gel phase using luer-lock connected syringes.
Shed snakeskins were used as the model membrane for these permeation studies using the NAG semi-solid gel formulations. The skins were hydrated in 0.1% aqueous sodium azide solution at room temperature for 48 hrs. Franz-cell diffusions experiments were carried out. In general the receptor cell was filled with a 7.4 pH 0.1 M phosphate buffer. The receptor solution was maintained at 37° C. and stirred with a magnetic stirrer. The snakeskins were mounted between the receptor and donor cells. The surface exposed to diffusion was 2.54 cm^2 (diameter 1.8 cm) and the receptor cell volume was 6 cm^3. The donor cell was covered with plastic film. The system was allowed to equilibrate at 37° C. for two hours before each experiment. The donor cells were filled with a 5 ml of the semisolid NAG pluronic-organo-gel formulation. Samples (N=3) were taken at intervals over a 48-hour period, 200-μl samples of receptor solutions were taken and replaced with fresh buffer; experiments were conducted in triplicate. The amounts of NAG that permeated through the snakeskin were determined by HPAE-PAD.
Steady state flux (Jss) for NAG (mg/cm^2/h) was calculated from its increasing amount in the receptor medium (Bach et al., Eur. J. Pharm. and Biopharm., 46:1-13 (1998)). NAG's permeability coefficient (kp) in cm/h was calculated from known physiochemical parameters (Hadgraft et al., “Feasibility Assessment in Topical and Transdermal Delivery: Mathematical Models and In Vitro Studies,” in Transdermal Drug Delivery, 2nd Ed. Marcel Dekker, Inc., pages 1-23 (2003)). Lag time (tlag) was determined graphically from the cumulative amount of drug released per unit area (mg/cm^2) versus time (h) plots. A square root of time (t^1/2) versus cumulative amount of drug released per unit area (mg/cm^2) was obtained to monitor NAG in vitro release rate (mg/cm^2) (Guidance for Industry: SUPAC-SS Semisolid Dosage Forms. Scale-up and Postapproval Changes Chemistry, Manufacturing, and Control; In Vitro Release Testing and In Vivo Bioequivalence Documentation. US Department of Health and Human Services, Food and Drug Administration, May 1997).

Series [5] is described as follows: Oil/water partition coefficient, n-hexane/phosphate buffer. Format: physicochemical. The settings on record: 37° C., 24 hours. As to the method: The oil/water partition coefficient for NAG was determined using n-hexane/phosphate buffer (pH 5.5 6, 6.73, and 7.4, 0.1 M) and n-hexane/water (Bemacki et al., J. Supramolecular Structure, 7:235-250 (1977)). In each case 5 ml of n-hexane was mixed with aqueous solutions containing NAG and shaken at 37° C. for 24 hours. The mixture was afterwards centrifuged and the organic and aqueous phases separated. The NAG concentration in the filtrates was determined by HPAE-PAD after the appropriate dilution.

The conditions of series [6]: cited from earlier work. This is another data set of the same source.
Series [7] in a line: Solubility measurements of NAG. The format is physicochemical. The method, then:
The solutions were centrifuged for 5 min at 9000 rev/min and the supernatant filtered with cellulose acetate membrane filters (0.45 μm pore size) (Dionex, Sunnyvale Calif.). The NAG concentration in each filtrate was determined by HPAE-PAD after the appropriate dilution.

For series [8] the following is noted: cited from earlier work. This is another data set of the same source.
The conditions of series [9]: literature; cited from earlier work.
Setting [10] is: phosphate buffer (pH 5.5) with 2% ethanol.
[11] abbreviates: phosphate buffer (pH 5.5) with 5% ethanol.
Setting [12] is: phosphate buffer (pH 5.5) with 10% ethanol.
[13] abbreviates: phosphate buffer (pH 5.5) with 25% ethanol.
[14] abbreviates: phosphate buffer (pH 5.5) with 50% ethanol.
The mark [15] stands for this setting: saturated DMSO donor, pH 7.4 phosphate buffer receptor.
Setting [16] is: lecithin-vitamin E (1:1) suspension.

Like-named read-outs stand apart in the source and are kept apart here. Bounds are passed on as bounds.

In general, pKa refers to the pH at which an ionisable group is half protonated.

As for `CC(=O)N[C@H]1C(O)O[C@H](CO)[C@@H](O)[C@@H]1O` (stereo partly drawn) [NAG, N-acetyl-D-glucosamine], the octanol-water partition coefficient in [1] (pH 7.4) is given as 0.017. Also, the “NAG transport from suspensions of membrane permeability enhancers” value in [2] (ethanol, oleic acid, isopropyl myristate and isopropyl palmitate suspensions) was “Negligible”. For the same compound, the “In Vitro release rate” value in series [2] (setting [10]) is recorded as 286.03 μg/cm^2; in series [2] (setting [11]) it was 303.61 μg/cm^2; in [2] (setting [12]) it was 537.49 μg/cm^2; in series [2] (setting [13]), 523.06 μg/cm^2; in series [2] (setting [14]), 198.02 μg/cm^2; in series [2] (setting [15]), 186.64 mg/cm^2. Moreover, the Jss in series [2] (setting [10]) stood at 112.61 mg/cm^2/h; in series [2] (setting [11]), 119.53 mg/cm^2/h; in [2] (setting [12]) it was 211.61 mg/cm^2/h; in series [2] (setting [13]), 205.93 mg/cm^2/h; in series [2] (setting [14]), 77.96 mg/cm^2/h; in series [2] (setting [15]) it was 73.48 mg/cm^2/h. In addition, the lag time entry in [2] (saturated DMSO solution) is on record as “no lag time”. In addition, the “in vitro release rate” value in [2] (saturated DMSO solution, FIG. 13) stood at 73.48 μg/cm^2. Further, the Papp in [2] (snake, calculated from known physiochemical parameters, read-out: permeability coefficient kp (converted)) is 203 ×10⁻⁶ cm/s; in series [4] (snake, pH 7.4, lecithin-vitamin E (1:1) suspension, read-out: permeability coefficient kp (converted)), 1.39 ×10⁻⁶ cm/s. For the same compound, the “permeation from aqueous solutions” value in series [2] (water or phosphate buffer solutions (pH 5.5, 6.0, 6.73, and 7.4; 0.1 M)) is “No permeation”. Besides, the “transport across shed snake skin” value in series [3] is recorded as “highly transported”. The “transport (receptor cell volume analyzed)” value in series [3] (snake, 100 mg/ml, pH 7) is on record as “over 50%”. Moreover, in series [4] (experiments not reported here), the “transport in aqueous only vehicles” value was “not transported”. The “NAG transport from suspensions” value in series [4] (lecithin-isopropyl palmitate and vitamin E suspensions (100 mg/ml)) is “Negligible (below the limit of detection)”. In addition, in [4] (setting [16]), the Release rate came out at 13.71 μg/cm^2. For the same compound, in [4] (setting [16]), the “steady state flux Jss” value came out at 4.23 μg/cm^2/h. Moreover, the “partition coefficient n-hexane/pH 5.5 buffer” value in series [5] is given as 0.252. In addition, the “partition coefficient n-hexane/pH 6.0 buffer” value in series [5] is recorded as 0.194. Moreover, in series [5], the “partition coefficient n-hexane/pH 6.73 buffer” value is given as 0.092. Further, the “partition coefficient n-hexane/pH 7.4 buffer” value in series [5] stood at 0.091. Moreover, the pKa in series [6] is given as 6.73. Moreover, the solubility result in [7] (ethanol) is given as “insignificantly soluble”; in series [7] (phosphate buffer), “highly soluble”.
As for `Cl.N[C@H]1C(O)O[C@H](CO)[C@@H](O)[C@@H]1O` (stereo partly shown) [glucosamine HCl, Glucosamine HCl, reference compound], in series [3], the “transport across shed snake skin” value was “not transported”.
Regarding `N[C@H]1C(O)O[C@H](CO)[C@@H](O)[C@@H]1O` (stereo partly shown) [glucosamine], the bioavailability in series [8] (oral administration) is listed as 12-13%. For the same compound, in [8] (oral dose), the “oral dose absorbed and excreted” value is given as “approximately 87%”; the “oral dose reaching osteoarthritic joints” value is given as less than 1%; the “oral dose widely distributed in the body” value is listed as less than 13%.
Take `CC(C)Cc1ccc(C(C)C(=O)O)cc1` (stereo not shown) [ibuprofen]: the “transport across shed snake skin” value in series [9] is “transported”.
Turning to `CN1CC[C@]23c4c5ccc(O)c4O[C@H]2C(=O)CC[C@@]3(O)[C@H]1C5` [oxymorphone], the octanol-water partition coefficient in series [1] (pH 7.4) is 0.0.
Turning to `CCC(NC(C)C)C(O)c1ccc(O)c2[nH]c(=O)ccc12` (stereo not shown) [procaterol], in [1] (pH 7.7), the octanol-water partition coefficient is reported as −0.37.

Source of the values: patent US8034796B2, “Glucosamine and glucosamine/anti-inflammatory mutual prodrugs, compositions, and methods” (The University of Georgia Research Foundation, Inc., priority 2004, dated 2011).
